Measured values: US20080176936A1, “Classes of Compounds that Interact with Integrins” (priority 2005, published 2008)

How the values were obtained:
[1] = molecular target: T1, αllbβ3 integrin (Homo sapiens, UniProt P05106+P08514); assay: ELISA: inhibition of binding of αllbβ3 integrin membrane preparation to coated extracellular matrix protein; details: human platelet membrane preparation
T1 construct: Human platelet membrane preparations were used as a source of αllbβ3 integrin; from tissue; host or cells: human platelets (membrane preparation)
T1 sequence (P08514 32-887 limits assumed): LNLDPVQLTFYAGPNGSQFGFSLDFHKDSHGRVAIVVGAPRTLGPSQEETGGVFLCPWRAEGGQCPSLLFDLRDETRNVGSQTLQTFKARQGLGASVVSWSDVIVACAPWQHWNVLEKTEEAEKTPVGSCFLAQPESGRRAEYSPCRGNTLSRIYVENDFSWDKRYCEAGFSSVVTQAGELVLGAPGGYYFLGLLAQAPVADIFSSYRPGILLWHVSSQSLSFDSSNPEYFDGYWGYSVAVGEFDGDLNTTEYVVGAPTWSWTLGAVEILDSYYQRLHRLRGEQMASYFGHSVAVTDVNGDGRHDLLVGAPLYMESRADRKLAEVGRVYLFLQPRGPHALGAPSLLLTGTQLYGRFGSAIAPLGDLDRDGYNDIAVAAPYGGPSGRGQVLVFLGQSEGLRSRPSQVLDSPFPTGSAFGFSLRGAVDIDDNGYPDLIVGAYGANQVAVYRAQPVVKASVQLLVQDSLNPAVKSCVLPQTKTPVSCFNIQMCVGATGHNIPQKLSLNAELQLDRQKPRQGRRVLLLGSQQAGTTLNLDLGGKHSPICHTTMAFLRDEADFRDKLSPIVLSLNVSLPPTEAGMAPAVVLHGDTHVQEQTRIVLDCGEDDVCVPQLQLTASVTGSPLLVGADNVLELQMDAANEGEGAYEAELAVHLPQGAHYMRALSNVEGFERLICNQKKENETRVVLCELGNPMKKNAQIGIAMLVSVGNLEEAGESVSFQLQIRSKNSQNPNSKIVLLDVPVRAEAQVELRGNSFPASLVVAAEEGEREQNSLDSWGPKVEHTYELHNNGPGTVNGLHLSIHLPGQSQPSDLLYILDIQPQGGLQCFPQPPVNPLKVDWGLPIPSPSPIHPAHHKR
T1 sequence (P08514 891-1039 partner limits assumed): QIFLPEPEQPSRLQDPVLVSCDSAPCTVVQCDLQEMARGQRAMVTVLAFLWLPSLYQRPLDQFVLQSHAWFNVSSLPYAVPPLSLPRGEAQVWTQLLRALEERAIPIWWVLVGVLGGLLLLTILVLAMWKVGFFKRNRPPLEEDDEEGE
T1 sequence (P05106 27-788): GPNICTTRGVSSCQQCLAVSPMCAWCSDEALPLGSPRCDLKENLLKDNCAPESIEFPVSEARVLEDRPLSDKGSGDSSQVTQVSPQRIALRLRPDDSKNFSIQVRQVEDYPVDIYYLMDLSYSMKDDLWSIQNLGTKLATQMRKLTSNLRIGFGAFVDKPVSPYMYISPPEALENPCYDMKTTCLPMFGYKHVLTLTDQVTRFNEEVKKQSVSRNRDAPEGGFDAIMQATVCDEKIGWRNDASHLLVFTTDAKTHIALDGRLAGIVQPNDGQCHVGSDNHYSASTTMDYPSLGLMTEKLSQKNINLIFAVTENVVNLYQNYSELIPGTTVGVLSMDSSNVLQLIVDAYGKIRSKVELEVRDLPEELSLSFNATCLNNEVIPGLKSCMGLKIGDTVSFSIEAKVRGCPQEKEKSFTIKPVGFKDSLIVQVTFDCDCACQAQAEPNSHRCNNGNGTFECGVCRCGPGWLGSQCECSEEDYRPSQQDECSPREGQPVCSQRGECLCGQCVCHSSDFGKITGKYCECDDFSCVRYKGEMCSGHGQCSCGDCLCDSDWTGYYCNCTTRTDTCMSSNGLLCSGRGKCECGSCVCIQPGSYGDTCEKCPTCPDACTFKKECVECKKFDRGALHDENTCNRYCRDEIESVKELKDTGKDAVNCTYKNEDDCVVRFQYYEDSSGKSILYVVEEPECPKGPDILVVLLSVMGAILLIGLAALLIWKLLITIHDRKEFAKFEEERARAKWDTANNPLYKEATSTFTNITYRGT
In short: (§1)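 Wells were coated with fibrinogen or vitronectin (10 µg/well), and integrin binding was measured by ELISA. αIIbβ3 came from human platelet membranes and αVβ3 from WM-115 cells, each preincubated with compound. Bound integrin was detected with a rabbit anti-β3 antibody, an HRP secondary and a colorimetric readout.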

[2] = molecular target: T2, αVβ3 integrin (Homo sapiens, UniProt P05106+P06756); assay: ELISA: inhibition of binding of αVβ3 integrin (source WM-115 cell line) to coated extracellular matrix protein; details: WM-115 cell line as integrin source
T2 construct: the cell line WM-115 was used as a source of αVβ3 integrin; endogenous in cells; host or cells: WM-115 cell line
T2 sequence (P06756 31-889 limits assumed): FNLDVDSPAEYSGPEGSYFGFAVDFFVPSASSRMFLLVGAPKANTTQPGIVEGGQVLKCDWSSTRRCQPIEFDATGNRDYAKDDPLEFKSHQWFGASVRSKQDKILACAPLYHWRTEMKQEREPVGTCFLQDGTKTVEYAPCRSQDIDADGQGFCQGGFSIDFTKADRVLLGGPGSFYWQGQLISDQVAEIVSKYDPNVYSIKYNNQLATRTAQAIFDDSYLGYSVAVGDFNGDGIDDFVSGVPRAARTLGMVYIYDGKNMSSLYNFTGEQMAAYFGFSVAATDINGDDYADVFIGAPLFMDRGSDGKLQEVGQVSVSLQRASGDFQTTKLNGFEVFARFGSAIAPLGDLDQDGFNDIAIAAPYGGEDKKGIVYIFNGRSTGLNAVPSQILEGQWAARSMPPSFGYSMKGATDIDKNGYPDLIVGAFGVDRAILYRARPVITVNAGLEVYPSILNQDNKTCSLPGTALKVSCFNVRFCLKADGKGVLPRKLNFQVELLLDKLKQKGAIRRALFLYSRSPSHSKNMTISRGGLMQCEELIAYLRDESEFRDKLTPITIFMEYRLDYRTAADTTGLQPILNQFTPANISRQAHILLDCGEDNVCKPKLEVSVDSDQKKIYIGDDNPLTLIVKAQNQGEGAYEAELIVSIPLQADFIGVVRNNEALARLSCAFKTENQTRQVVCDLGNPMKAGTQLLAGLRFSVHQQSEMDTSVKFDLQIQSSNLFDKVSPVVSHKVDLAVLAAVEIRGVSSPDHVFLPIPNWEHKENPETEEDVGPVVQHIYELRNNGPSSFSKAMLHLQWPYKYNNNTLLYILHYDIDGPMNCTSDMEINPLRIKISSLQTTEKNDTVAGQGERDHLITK
T2 sequence (P06756 891-1048 partner limits assumed): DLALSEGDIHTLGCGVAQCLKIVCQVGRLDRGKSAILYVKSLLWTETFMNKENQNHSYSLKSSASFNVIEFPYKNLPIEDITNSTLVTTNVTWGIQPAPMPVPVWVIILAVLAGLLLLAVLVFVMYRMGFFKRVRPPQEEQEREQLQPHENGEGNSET
T2 sequence (P05106 27-788): as the sequence (P05106 27-788) above
In short: as §1

SMILES: Nc1cccc(COC2C(NC(=O)c3ccc(Cl)cc3)COC(COCC(=O)O)C2O)c1 (stereo not drawn) [Compound 80]
- INHIBITION @ 250 uM RECEPTOR allBb3 SUBSTRATE FIBRINOGEN ([1]; substrate fibrinogen): ++ (61% to 80% inhibition at 250 micromolar)
- INHIBITION 250 uM RECEPTOR allBb3 SUBSTRATE VITRONECTIN ([1]; substrate vitronectin): +++ (81% to 100% inhibition at 250 micromolar)
- INHIBITION 250 uM RECEPTOR aVb3 SUBSTRATE FIBRINOGEN [2]: + (36% to 60% inhibition at 250 micromolar)
